This is an account of results in patent publication US10532068B2, “Dual molecular delivery of oligonucleotides and peptide containing conjugates” (Merck Sharp & Dohme Corp., priority 2013, dated 2020).

In series [1] the target is T1, RISC (Mus musculus, UniProt Q8CJG0).
T1 construct: from tissue; host or cells: liver of female CD-1 mice
Kind of series: Quantitation of siRNA bound to RISC in mouse liver (Ago2 immunoprecipitation, stem-loop qPCR). It is filed as in vivo, CD-1 mice. To be noted: FIG. 5. The method, then: Female CD-1 mice (Charles River) were injected in accordance with either a sequential dosing paradigm or a co-dosing paradigm. In the sequential dosing paradigm, the targeted siRNA (SCE) is dosed at t=0 and the targeted peptide is separately dosed up to 2 hr before the SCE (−2 hr) or up to 24 hr after the SCE (+24 hr). In the co-dosing paradigm, the SCE and peptides are co-formulated and dosed together in the same formulation as a single injection at t=0. The mice were dosed either by intravenous (i.v.) or subcutaneous (s.c.) injection of SCE and peptide. For the i.v. doses, the compounds were injected into the tail vein of the mice. For the s.c. doses, the compounds were injected in the subcutaneous space on the back of the mouse between the shoulder blades. At the indicated harvest times (measured from t=0 when the siRNA was dosed, regardless of when the peptide was dosed), the animals were sacrificed and 3 mm liver punches were collected, preserved in RNAlater (Ambion), and stored at 4° C. Separate 5 mm liver punches were collected, placed in 96-well plates, frozen on dry ice, and stored at −80° C. until use. […]
Background: Real-time PCR tracks product formation cycle by cycle.

For series [2], the system named is CTNNB1. In words: In vivo evaluation in mice: liver mRNA knockdown measurement (TaqMan qPCR). The settings on record: FIG. 4; sequential dosing, peptide 15 min after siRNA. More on the design: species or system CD-1 mice. Summed up: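 Female CD-1 mice got siRNA (SCE) and targeting peptide i.v. (tail vein) or s.c., co-formulated at t=0 or sequentially (peptide −2 hr to +24 hr vs siRNA). Liver punches taken at set times after siRNA dosing; TaqMan qPCR with PPIB housekeeping, ΔΔCt relative to PBS control.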

T1 sequence (Q8CJG0 whole entry): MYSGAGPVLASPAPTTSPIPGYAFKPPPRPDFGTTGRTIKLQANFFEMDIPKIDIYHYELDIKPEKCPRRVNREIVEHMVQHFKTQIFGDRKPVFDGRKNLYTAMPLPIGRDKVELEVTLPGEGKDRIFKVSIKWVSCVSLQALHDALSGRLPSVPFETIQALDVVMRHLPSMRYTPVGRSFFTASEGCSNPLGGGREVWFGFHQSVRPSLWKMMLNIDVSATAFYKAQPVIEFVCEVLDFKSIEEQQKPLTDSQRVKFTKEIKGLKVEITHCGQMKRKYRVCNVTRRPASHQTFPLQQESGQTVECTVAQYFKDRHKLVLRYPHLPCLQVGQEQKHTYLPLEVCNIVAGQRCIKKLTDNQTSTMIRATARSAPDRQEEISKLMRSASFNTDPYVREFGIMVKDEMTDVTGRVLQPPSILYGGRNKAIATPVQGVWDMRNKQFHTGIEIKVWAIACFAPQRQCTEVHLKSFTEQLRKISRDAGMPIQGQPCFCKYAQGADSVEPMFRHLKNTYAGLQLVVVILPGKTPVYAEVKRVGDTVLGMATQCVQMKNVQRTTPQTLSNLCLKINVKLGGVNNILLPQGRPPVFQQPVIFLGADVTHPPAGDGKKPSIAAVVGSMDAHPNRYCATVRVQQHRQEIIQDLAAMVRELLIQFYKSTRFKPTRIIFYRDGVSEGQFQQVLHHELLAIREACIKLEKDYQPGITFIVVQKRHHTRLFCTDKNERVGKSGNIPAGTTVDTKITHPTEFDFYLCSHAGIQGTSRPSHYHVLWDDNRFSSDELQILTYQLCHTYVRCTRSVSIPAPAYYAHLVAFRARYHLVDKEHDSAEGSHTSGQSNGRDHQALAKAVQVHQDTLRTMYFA

Regarding “siRNA-III: CTNNB1 ds siRNA, passenger SEQ ID NO 1803, guide SEQ ID NO 1806 (vinylPmoeT) (sense CUGUUGGAUUGAUUCGAAAUU; guide TUUCGAAUCAAUCCAACAGUU; vinylphosphonate MOE T; (1)..(1) aminohexyl phosphate inverted abasic cap; (1)..(2) 2′-O-methyl; (3)..(3) 2′-deoxy-2′-fluoro; (4)..(5) 2′-O-methyl; (6)..(8) 2′-deoxy-2′-fluoro; (9)..(10) 2′-O-methyl; (11)..(12) 2′-deoxy-2′-fluoro; (13)..(15) 2′-O-methyl; (16)..(19) 2′-deoxy-2′-fluoro; (20)..(21) 2′-O-methyl; (20)..(21) phosphorothioate internucleotide linkage; (21)..(21) inverted abasic cap; (1)..(1) terminal vinyl phosphate; (1)..(1) 2′-methoxyethoxy; (2)..(21) ribonucleotide unmodified or modified as described for this sequence; (2)..(2) 2′-deoxy-2′-fluoro; (3)..(3) 2′-O-methyl; (4)..(4) …)”, the “time course of RISC loading” value in series [1] is given as “faster RISC loading”. In addition, the “time course of mRNA KD in DMD format compared to 5-fold higher dose of siRNA-III alone” value in series [2] is “faster and greater KD”.
